Experiment [1] has as its target p38 kinase enzyme (Homo sapiens, UniProt Q16539). Put plainly: Inhibition of p38 kinase (33P-ATP, EGF peptide 661-681 substrate). It is filed as biochemical. To be noted: 33P-ATP assay, 40 min at 30° C. The procedure: The kinase buffer solution is prepared by combining 2.5 mL 1M Tris-HCl (pH 7.5), 0.1 mL 1M dithiothreitol, 1.0 mL 1M magnesium chloride, and 300 μL 1% Triton X-100 and diluting to 100 mL with water. 84 mL of this kinase buffer solution is combined with 16 mL DMSO to prepare the 16% DMSO solution.
The 200 μM ATP solution is prepared by adding 102.6 μL 10 mM aqueous ATP, 25 μL ^33P-ATP, and 163.5 μL of 4 mM aqueous Epidermal Growth Factor Peptide 661-681 (Biomol, Catalog #P-121) in 5 mL kinase buffer solution.
The p38 kinase enzyme solution is prepared by dissolving 9.5 μL concentrated enzyme solution (250 ng p38 enzyme/μL kinase buffer solution) in 1536 μL kinase buffer solution.
An 80 μM solution of each test compound and control compound are prepared by dissolving 2 μL of a 10 mM stock solution of the respective compounds in dimethylsulfoxide in 248 μL of the 16% DMSO solution in a Costar 96-well microtiter plate. The plate is placed onto the Tecan Genesis automated liquid handler for 1:3 serial dilutions.
10 μL of serially diluted compound is placed with a Beckman Multimek 96-well automated liquid handler to the assay plate. 20 μL of 200 μM ATP solution is added with a Titertek Multidrop 8-channel liquid handler. 10 μL of p38 kinase enzyme solution is transferred to the assay plate using the Multimek. The mixture is allowed to react for 40 min at 30° C. and then the reaction is stopped by adding 60 μL of freshly prepared 5% glacial AcOH with Multidrop. 80 μL of this solution is transferred to an “MAPH” plate using the Multimek. The plates are allowed to set for 30 min at room temperature and then washed/aspirated on the Titertek MAP extractor with freshly prepared 0.5% glacial AcOH (1×300 μL, 2×200 μL). […] The plates are allowed to sit for 30 min and counted on a PE/Wallac Microbeta Trilux scintillation counter for ^33P-isotope.
All exemplified compounds are initially tested at 10 concentrations (20 μM-1 nM using 1:3 serial dilutions). […] IC50 values are calculated (IDBS ActivityBase software) for each compound using non-linear regression. […]

Experiment [2] relates to TNF-α production in mouse peritoneal macrophages. Put plainly: Inhibition of TNF-α in vitro, LPS/interferon-γ stimulated mouse peritoneal macrophages, Luminex detection. It counts as cell-based. To be noted: Peritoneal macrophage, LPS 50 ng/mL + interferon-γ 10 U/mL, 18 hr, read-out: IC50, suppression of TNF-α in vitro. The procedure:
1 mL thioglycolate broth (5.0 g yeast extract, 15.0 g casitone or trypticase, 5.0 g dextrose, 2.5 g sodium chloride, 0.75 g L-cystine, 0.5 g sodium thioglycolate, 1.0 mg resazurin, and 0.75 g agar in 1.0 L distilled water) are injected into the peritoneal cavity of Balb/C female mice. At day 4 or 5 post-injection the mice are sacrificed and then injected i.p. with 4 mL RPMI-1640 medium (BioWhittaker) and the peritoneal macrophages are withdrawn by syringe. Mouse peritoneal microphages are counted with a hemocytometer and adjusted to 5×10^5 cells/well in 96-well plates in RPMI-1640 medium with 10% fetal bovine serum. 200 μL/well is plated in 96-well plates and the cells allowed to settle and adhere to the bottom of the well for at least 3 hr. The test compound or standard p38 kinase inhibitor is pre-treated using a series of 8 concentrations for 1 hr at 37° C. (20 μL/well). The cells are treated with a mixture of 50 ng/mL lipopolysaccharide (LPS) and 10 U/mL interferon-γ for 18 hr at 37° C. (20 μL/well). The conditioned media is harvested and assayed for TNF-α production using the Luminex procedure. […] Standards and samples are read on a Luminex machine. These intensity readings are then converted to picogram/milliliter units based on a 12-point standard curve created in duplicate using a four-parameter logistic regression method (Bio-Plex Manager 2.0, Bio-Rad), and the IC50 calculated.

Experiment [3] has as its system TNFa-levels in the plasma. Nature of the experiment: Inhibition of TNF in vivo, LPS-challenged mice, plasma TNFa by ELISA. To be noted: p.o., female Balb/c mice, LPS IP 400 ug/kg 1 hr after compound, plasma 1.5 hrs after LPS. The procedure:
Compounds are administered p.o. (30, 10, 3 and 1 mg/kg) to female Balb/c mice (6 mice/dose). 1 hr following compound administration at 4 doses (P.O. at volume of 0.1 mL/mouse; vehicle: 1% NaCMC/0.25% Tween-80 in water); mice are given an IP-injection of LPS at 400 ug/kg. 1.5 hrs after LPS challenging, mice are anesthetized with isoflurane and blood is taken via cardiac puncture. TNFa-levels in the plasma are determined using ELISA kit from R&D Systems and dose response ED50 is determined.

Experiment [4] deals with TNF-α in synovial lavage fluid. Nature of the experiment: Effect on intra-articular LPS induced TNF-α, rat ankle synovial lavage fluid. To be noted: oral, female Lewis rats, intra-articular LPS 10 μg one hour after compound, lavage after two hours, read-out: ED50, inhibition of TNF-α synthesis in synovial lavage fluid. It is filed as in vivo. The procedure: Intra-articular injection of LPS into rat ankles induces the synthesis of TNF-α, which can be measured in synovial lavage fluid. High levels of TNF-α are detectable within 2 hours. Since the joint is the site where arthritis develops, this model can rapidly determine whether an orally administered compound has an effect on an inflammatory response in the synovium.
Six female Lewis rats (150-200 g) are place in each treatment group. The animals are given vehicle (1% NaCarboxymethylcellulose-0.25% Tween 80) or test compound (1 mg/kg, 3 mg/kg, 10 mg/kg, and 30 mg/kg) orally. One hour later, 10 μl LPS (10 μg) is administered intra-articularly into the right ankle of each rat, while the left ankle receives 10 μL of saline. After two hours, each ankle is lavaged with 100 μL of saline. The lavage is collected and stored at −80° C.
TNF-α is measured with a commercially available ELISA kit (R&D, RTA00). Treatment with Example 100 produced a dose response inhibition of TNF-α synthesis, as measured in the synovial lavage fluid with ED50=30 mg/kg.

p38 kinase enzyme, sequence (Q16539 whole entry): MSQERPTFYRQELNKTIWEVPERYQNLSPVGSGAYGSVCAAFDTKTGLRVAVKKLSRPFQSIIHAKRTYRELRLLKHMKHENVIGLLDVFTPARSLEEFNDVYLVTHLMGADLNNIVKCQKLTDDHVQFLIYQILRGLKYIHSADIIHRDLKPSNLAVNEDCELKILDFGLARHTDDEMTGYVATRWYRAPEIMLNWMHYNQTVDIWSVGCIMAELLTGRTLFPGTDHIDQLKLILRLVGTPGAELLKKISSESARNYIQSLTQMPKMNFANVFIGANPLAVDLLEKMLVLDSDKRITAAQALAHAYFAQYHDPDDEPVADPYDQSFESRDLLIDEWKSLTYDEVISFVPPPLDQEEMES

In experiment [1], `Cn1nc(C(C)(C)C)cc1NC(=O)Nc1cc(F)cc(OC2CCN(C(=O)C(C)(C)C)CC2)c1` [Example 70, 1-(5-tert-Butyl-2-methyl-2H-pyrazol-3-yl)-3-{3-[1-(2,2-dimethyl-propionyl)-piperidin-4-yloxy]-5-fluoro-phenyl}-urea] returned an IC50 of 19 nM.
Turning to `Cn1nc(C(C)(C)C)cc1NC(=O)Nc1ccc(CN2CCN(C(=O)c3c(F)cccc3F)CC2)cc1` [Example 100], the IC50 in experiment [1] came out at 10 nM; in experiment [2], 11 nM. The “TMED50, suppression of TNF in vivo” value in experiment [3] is 2.4 mg/kg. The ED50 in experiment [4] turned out to be 30 mg/kg.
Regarding `Cc1ccc(-n2nc(C(C)(C)C)cc2NC(=O)Nc2ccc(N3CCN(C(=O)C(C)(C)C)CC3)cc2)cc1` [Example 136], the IC50 in experiment [1] worked out at 91 nM.

Usually IC50 stands for the concentration needed to halve the response being measured. Usually ED50 stands for the midpoint of the dose-response relation.

The values above are taken from patent publication US7767674B2, “Kinase inhibitors” (Eli Lilly and Company, priority 2004, dated 2010).
